# In PMC8878317, “Chemogenomics identifies acetyl-coenzyme A synthetase as a target for malaria treatment and prevention” (Cell Chemical Biology, 2022):
# Read-outs that look alike come from different tables or passages of the source.
# Experiments:
# Format in all cases: cell-based
# [1] = tested on: histone acetylation in P. falciparum 3D7-A10; test: Histone acetylation Western blot, wild-type 3D7-A10; settings: trophozoites, 3 h exposure
# Experimental: Synchronous trophozoite-stage (24-32hr post-invasion) cultures at 3–5% parasitemia and 2% hematocrit in complete medium were exposed to test compounds for 3 hr at 37°C. […] DMSO was tested at 0.1% as the vehicle-only control. Following drug exposure, parasites were isolated via saponin lysis ice-cold 0.1% saponin in phosphate-buffered saline (PBS). Isolated parasites were washed 3x in ice-cold PBS containing protease inhibitor cocktail (cOmplete mini, Roche) and lysed in 1x Laemmli Sample Buffer (Biorad) with 5% beta-mercaptoethanol (Sigma-Aldrich). Samples were heated at 99°C for 10 min before centrifugation. Equal quantities of solute were separated on Protean TGX Precast Gels (4–20% gradient) in Tris-SDS-glycine buffer, transferred to nitrocellulose membrane by iblot (Invitrogen), and blocked for 1h in tris-buffered saline (TBS) with 5% skim milk powder. Blocked membranes were probed with antibodies recognising tetra-acetylated H4 (H4ac4, Sigma-Aldrich 06–866), H4K8ac (CST #2594), H3K9ac (CST #9649) or H3 (CST #4499), at 1:1000 dilution, and PfBiP ([Shonhai et al., 2007]) (at 1:5000 dilution) in 3% milk powder TBS with 0.1% Tween 20 at 4°C overnight and with 800CW goat α-rabbit IgG (Licor) at 1:10,000 dilution. Membranes were visualised using a Licor Odyssey CLX imaging system and quantified using ImageJ.
# [2] = tested on: P. falciparum MMV019721-resistant lines (3D7-A10 or Dd2-B2 derived); test: Dose-response assay of MMV019721-selected resistant lines (bulk cultures and clones); settings: Plasmodium falciparum
# Experimental: (§1) For in vitro–selected lines, drug susceptibility was measured by SYBR Green I–based assay ([Johnson et al., 2007]; [Smilkstein et al., 2004]). Ring-stage parasites were cultured for 72 hr at 1% hematocrit and 1% starting parasitemia in 384-well black clear-bottom plates containing test compounds plated in triplicate in 12-point serial dilutions. Lysis buffer (0.16% w/v saponin, 1.6% Triton X-100, 5 mM EDTA, and 20 mM Tris-HCl, pH 7.4) with SYBR Green I fluorescent dye (Invitrogen) was added, and fluorescence readings were taken (excitation at 494 nm, emission at 530 nm). Alternatively, Dd2-B2 ring-stage cultures at 0.3% parasitemia and 1% hematocrit were exposed for 72 hr to a range of ten drug concentrations that were 2-fold serially diluted in duplicates along with drug-free controls. Parasite survival was assessed by flow cytometry on an Accuri C6 (BD Biosciences) using SYBR Green and MitoTracker Deep Red FM (Life Technologies) as nucleic acid stain and vital dyes respectively. EC50 values were calculated using a nonlinear regression curve fit in Prism Software version 8 (GraphPad).
# (§2) Bulk cultures were tested for reduced drug susceptibility and individual clones were isolated by limiting dilution.
# [3] = tested on: P. falciparum MMV084978-resistant clones (Dd2-B2 derived); test: Dose-response assay of MMV084978-selected resistant clones; settings: Plasmodium falciparum
# Experimental: as §1, with “Ring-stage” for “For in vitro–selected lines, drug susceptibility was measured by SYBR Green I–based assay ([Johnson et al., 2007]; [Smilkstein et al., 2004]). Ring-stage”, “Lysis buffer (0.16% w/v saponin, 1.6% Triton X-100, 5 mM EDTA, and 20 mM Tris-HCl, pH 7.4) with SYBR Green I fluorescent dye (Invitrogen) was added, and fluorescence readings were taken (excitation at 494 nm, emission at 530 nm).” left out
# as §2
compound,measurement,setting,value
"O=C1C(O)=C([C@H]2CC[C@H](c3ccc(Cl)cc3)CC2)C(=O)c2ccccc21 [Atovaquone, reference compound]","acetylation of H4K8ac, H3K9ac and tetra-acetylated H4 (H4Ac4) histone markers relative to DMSO",[1],no effect
CCN(CC)S(=O)(=O)c1ccc(Cl)c(C(=O)Nc2ccc3nc(C)sc3c2)c1 [MMV019721],EC50,"[2]; MDR1, read-out: MMV019721 mean EC50 (nM) ± SD (n), selection 9, Dd2-B2, clone B3, AcAS CNV, MDR1 CNV, AP2-I CNV",1400 ± 200 nM
same,EC50,"[2]; read-out: MMV019721 mean EC50 (nM) ± SD (n), selection 1, Dd2-B2, clone E4, AcAS:A597V",7700 ± 570 nM
same,EC50,"[2]; read-out: MMV019721 mean EC50 (nM) ± SD (n), selection 2, Dd2-B2, clone E10, AcAS:A597V",9200 ± 810 nM
same,EC50,"[2]; read-out: MMV019721 mean EC50 (nM) ± SD (n), selection 2, Dd2-B2, clone F12, AcAS:A597V, n=1",8400 nM
same,EC50,"[2]; read-out: MMV019721 mean EC50 (nM) ± SD (n), selection 3, Dd2-B2, clone F2, AcAS:A597V",9000 ± 490 nM
same,EC50,"[2]; read-out: MMV019721 mean EC50 (nM) ± SD (n), selection 3, Dd2-B2, clone F10, AcAS:A597V",11000 ± 1300 nM
same,EC50,"[2]; read-out: MMV019721 mean EC50 (nM) ± SD (n), selection 4, 3D7-A10, Bulk, sequencing not determined",460 ± 100 nM
same,EC50,"[2]; read-out: MMV019721 mean EC50 (nM) ± SD (n), selection 5, 3D7-A10, clone 2B1C, AcAS:T648M",7700 ± 1200 nM
same,EC50,"[2]; read-out: MMV019721 mean EC50 (nM) ± SD (n), selection 5, 3D7-A10, clone 2B1F, AcAS:T648M",7500 ± 1400 nM
same,EC50,"[2]; read-out: MMV019721 mean EC50 (nM) ± SD (n), selection 5, 3D7-A10, clone 2B12B, AcAS:T648M",7400 ± 500 nM
same,EC50,"[2]; read-out: MMV019721 mean EC50 (nM) ± SD (n), selection 6, 3D7-A10, clone 3B1D, AcAS:T648M",7100 ± 1700 nM
same,EC50,"[2]; read-out: MMV019721 mean EC50 (nM) ± SD (n), selection 6, 3D7-A10, clone 3B6H, AcAS:T648M",6800 ± 420 nM
same,EC50,"[2]; read-out: MMV019721 mean EC50 (nM) ± SD (n), selection 6, 3D7-A10, clone 3B11G, AcAS:T648M",6800 ± 1100 nM
same,EC50,"[2]; read-out: MMV019721 mean EC50 (nM) ± SD (n), selection 7, 3D7-A10, clone 4B3D, AcAS:T648M",7700 ± 1700 nM
same,EC50,"[2]; read-out: MMV019721 mean EC50 (nM) ± SD (n), selection 7, 3D7-A10, clone 4B4H, AcAS:T648M",8400 ± 680 nM
same,EC50,"[2]; read-out: MMV019721 mean EC50 (nM) ± SD (n), selection 7, 3D7-A10, clone 4B8B, AcAS:T648M",7500 ± 1100 nM
same,EC50,"[2]; read-out: MMV019721 mean EC50 (nM) ± SD (n), selection 8, Dd2-B2, clone A3, AcAS CNV, AP2-I CNV",1400 ± 90 nM
same,EC50,"[2]; read-out: MMV019721 mean EC50 (nM) ± SD (n), selection 10, Dd2-B2, clone C3, ACS11 INDEL(Leu24-Asp30), AP2-I CNV",2000 ± 170 nM
same,EC50,"[2]; read-out: MMV019721 mean EC50 (nM) ± SD (n), selection 11, 3D7-A10, clone 1E9, sequencing not determined",3000 ± 250 nM
same,EC50,"[2]; read-out: MMV019721 mean EC50 (nM) ± SD (n), selection 11, 3D7-A10, clone 1E12, AcAS: Ala652Thr",2700 ± 270 nM
same,EC50,"[2]; read-out: MMV019721 mean EC50 (nM) ± SD (n), selection 11, 3D7-A10, clone 1G4, sequencing not determined",2000 ± 600 nM
same,EC50,"[2]; read-out: MMV019721 mean EC50 (nM) ± SD (n), selection 11, 3D7-A10, clone 1G8, ACS11:Thr767Ile",1700 ± 340 nM
same,EC50,"[2]; read-out: MMV019721 mean EC50 (nM) ± SD (n), selection 12, 3D7-A10, clone 2B4, AcAS:T648M",8500 ± 840 nM
same,EC50,"[2]; read-out: MMV019721 mean EC50 (nM) ± SD (n), selection 12, 3D7-A10, clone 2C6, sequencing not determined",2200 ± 770 nM
same,EC50,"[2]; read-out: MMV019721 mean EC50 (nM) ± SD (n), selection 12, 3D7-A10, clone 2D11, sequencing not determined",7100 ± 1300 nM
same,EC50,"[2]; read-out: MMV019721 mean EC50 (nM) ± SD (n), selection 12, 3D7-A10, clone 2G6, AcAS: Ala652Thr",4000 ± 630 nM
same,EC50,"[2]; read-out: MMV019721 mean EC50 (nM) ± SD (n), selection 13, 3D7-A10, clone 3B9, sequencing not determined",2300 ± 680 nM
same,EC50,"[2]; read-out: MMV019721 mean EC50 (nM) ± SD (n), selection 13, 3D7-A10, clone 3C7, sequencing not determined",2300 ± 530 nM
same,EC50,"[2]; read-out: MMV019721 mean EC50 (nM) ± SD (n), selection 13, 3D7-A10, clone 3D10, ACS11: Asp269Gly",1500 ± 82 nM
same,EC50,"[2]; read-out: MMV019721 mean EC50 (nM) ± SD (n), selection 13, 3D7-A10, clone 3G8, ACS11: Ser74Leu",2200 ± 570 nM
same,EC50,"[2]; read-out: PfAcAS:A597V-resistant clone EC50, range over A597V clones",7700 to 11000 nM
same,EC50,"[2]; read-out: PfAcAS:T648M EC50, range over T648M clones",6800 to 8400 nM
O=C(NNC(=O)c1csnn1)c1ccc(Cl)cc1 [MMV084978],EC50,"[3]; DD2, read-out: MMV084978 mean EC50 (nM) ± SD (n), selection 1, Dd2-B2, clone A7, AcAS:A597V",> 9600 nM
same,EC50,"[3]; DD2, read-out: MMV084978 mean EC50 (nM) ± SD (n), selection 1, Dd2-B2, clone C11, sequencing not determined",2500 ± 42 nM
same,EC50,"[3]; DD2, read-out: MMV084978 mean EC50 (nM) ± SD (n), selection 1, Dd2-B2, clone E5, sequencing not determined",2600 ± 47 nM
same,EC50,"[3]; DD2, read-out: MMV084978 mean EC50 (nM) ± SD (n), selection 1, Dd2-B2, clone F1, sequencing not determined",2800 ± 260 nM
same,EC50,"[3]; DD2, read-out: MMV084978 mean EC50 (nM) ± SD (n), selection 1, Dd2-B2, clone F9, sequencing not determined",2100 ± 53 nM
same,EC50,"[3]; DD2, read-out: MMV084978 mean EC50 (nM) ± SD (n), selection 1, Dd2-B2, clone G8, AcAS:A652S",2500 ± 24 nM
same,EC50,"[3]; DD2, read-out: MMV084978 mean EC50 (nM) ± SD (n), selection 2, Dd2-B2, clone B8, sequencing not determined",2400 ± 33 nM
same,EC50,"[3]; DD2, read-out: MMV084978 mean EC50 (nM) ± SD (n), selection 2, Dd2-B2, clone C4, sequencing not determined",2400 ± 1.7 nM
same,EC50,"[3]; DD2, read-out: MMV084978 mean EC50 (nM) ± SD (n), selection 2, Dd2-B2, clone E9, AcAS:A652S",2600 ± 76 nM
same,EC50,"[3]; DD2, read-out: MMV084978 mean EC50 (nM) ± SD (n), selection 2, Dd2-B2, clone F8, sequencing not determined",2600 ± 7 nM
same,EC50,"[3]; DD2, read-out: MMV084978 mean EC50 (nM) ± SD (n), selection 2, Dd2-B2, clone H12, AcAS:Y607C",970 ± 41 nM
